Data from patent US10221173B2, “Chemical compounds” (AstraZeneca AB, priority 2017, dated 2019).
Values after ≈ are worked out from the molar mass of the structure shown.

Tests used:
[1] = Thermodynamic solubility (shake-flask); assay type: physicochemical; conditions: aqueous phosphate buffer, 25 °C, pH 7.4, aqueous buffer, thermodynamic from solid, phosphate buffer pH 7.4, 24 hours
[2] = target: recombinant human Estrogen Receptor alpha ligand binding domain (ER alpha-LBD (GST)) (Homo sapiens (Human), UniProt P03372); experiment: ERα binding assay (LanthaScreen TR-FRET competition)
Sequence of recombinant human Estrogen Receptor alpha ligand binding domain (ER alpha-LBD (GST)) (P03372 307-554): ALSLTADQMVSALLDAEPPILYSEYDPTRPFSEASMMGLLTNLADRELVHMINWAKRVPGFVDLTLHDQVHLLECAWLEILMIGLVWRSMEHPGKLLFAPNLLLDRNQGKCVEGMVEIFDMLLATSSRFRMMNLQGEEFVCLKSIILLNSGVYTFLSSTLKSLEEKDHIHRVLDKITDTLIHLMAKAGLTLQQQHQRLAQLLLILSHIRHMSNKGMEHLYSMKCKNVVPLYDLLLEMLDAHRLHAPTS

[3] = target: Estrogen Receptor (ERα) in MCF-7 cells (Homo sapiens (Human), UniProt P03372); experiment: MCF-7 ER down-regulation assay (immuno-fluorescence); assay type: cell-based
Sequence of Estrogen Receptor (ERα) in MCF-7 cells (P03372 whole entry): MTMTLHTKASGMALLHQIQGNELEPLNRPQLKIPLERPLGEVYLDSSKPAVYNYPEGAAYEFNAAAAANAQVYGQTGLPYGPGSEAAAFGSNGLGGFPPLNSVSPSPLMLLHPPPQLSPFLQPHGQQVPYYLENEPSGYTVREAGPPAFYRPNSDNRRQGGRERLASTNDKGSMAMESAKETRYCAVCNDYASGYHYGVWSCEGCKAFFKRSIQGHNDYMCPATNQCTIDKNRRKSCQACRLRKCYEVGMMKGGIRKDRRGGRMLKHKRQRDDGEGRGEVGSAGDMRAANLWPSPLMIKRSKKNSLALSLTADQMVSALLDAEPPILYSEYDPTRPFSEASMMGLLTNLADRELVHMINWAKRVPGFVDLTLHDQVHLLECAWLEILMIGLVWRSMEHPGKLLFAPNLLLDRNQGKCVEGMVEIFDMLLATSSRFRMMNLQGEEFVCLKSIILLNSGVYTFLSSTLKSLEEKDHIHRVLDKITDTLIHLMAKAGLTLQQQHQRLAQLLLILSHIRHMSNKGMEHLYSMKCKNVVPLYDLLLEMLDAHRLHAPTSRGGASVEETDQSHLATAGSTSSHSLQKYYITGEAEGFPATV

solubility at 24 h [1] | Structure (SMILES) | IC50 [2] | IC50 [3] | % downregulation (in brackets) ([3]; maximum downregulation)
895 µM (≈ 419 µg/mL) | C[C@@H]1Cc2c([nH]c3ccccc23)[C@@H](c2cccc(NCCNCCCF)c2)N1CC1(F)COC1 [Example 2, N-1-(3-((1R,3R)-2-((3-fluorooxetan-3-yl)methyl)-3-methyl-2,3,4,9-tetrahydro-1H-pyrido[3,4-b]indol-1-yl)phenyl)-N-2-(3-fluoropropyl)ethane-1,2-diamine] | – | – | –
712 µM (≈ 344 µg/mL) | C[C@@H]1Cc2c([nH]c3ccccc23)[C@@H](c2cccc(N(C)CCNCCCF)c2)N1CC1(F)COC1 [Example 3, N-1-(3-((1R,3R)-2-((3-fluorooxetan-3-yl)methyl)-3-methyl-2,3,4,9-tetrahydro-1H-pyrido[3,4-b]indol-1-yl)phenyl)-N-2-(3-fluoropropyl)-N-1-methylethane-1,2-diamine] | – | – | –
68 µM (≈ 32.5 µg/mL) | Cc1ccc(OCCNCCCF)cc1[C@@H]1c2[nH]c3ccccc3c2C[C@@H](C)N1CC(F)(F)F [Example 17, 3-fluoro-N-(2-(4-methyl-3-((1R,3R)-3-methyl-2-(2,2,2-trifluoroethyl)-2,3,4,9-tetrahydro-1H-pyrido[3,4-b]indol-1-yl)phenoxy)ethyl)propan-1-amine] | – | – | –
27 µM (≈ 12.9 µg/mL) | Cc1cc(OCCNCCCF)cc([C@@H]2c3[nH]c4ccccc4c3C[C@@H](C)N2CC(F)(F)F)c1 [Example 18, 3-fluoro-N-(2-(3-methyl-5-((1R,3R)-3-methyl-2-(2,2,2-trifluoroethyl)-2,3,4,9-tetrahydro-1H-pyrido[3,4-b]indol-1-yl)phenoxy)ethyl)propan-1-amine] | – | – | –
5 µM (≈ 2.39 µg/mL) | Cc1ccc([C@@H]2c3[nH]c4ccccc4c3C[C@@H](C)N2CC(F)(F)F)cc1OCCNCCCF [Example 19, 3-fluoro-N-(2-(2-methyl-5-((1R,3R)-3-methyl-2-(2,2,2-trifluoroethyl)-2,3,4,9-tetrahydro-1H-pyrido[3,4-b]indol-1-yl)phenoxy)ethyl)propan-1-amine] | – | – | –
88 µM (≈ 42.4 µg/mL) | C[C@@H]1Cc2c([nH]c3ccccc23)[C@@H](c2cccc(OCCNCCCF)c2F)N1CC(F)(F)F [Example 24, 3-fluoro-N-(2-(2-fluoro-3-((1R,3R)-3-methyl-2-(2,2,2-trifluoroethyl)-2,3,4,9-tetrahydro-1H-pyrido[3,4-b]indol-1-yl)phenoxy)ethyl)propan-1-amine] | – | – | –
8 µM (≈ 3.96 µg/mL) | Cc1c(OCCNCCCF)ccc(F)c1[C@@H]1c2[nH]c3ccccc3c2C[C@@H](C)N1CC(F)(F)F [Example 33, 3-fluoro-N-(2-(4-fluoro-2-methyl-3-((1R,3R)-3-methyl-2-(2,2,2-trifluoroethyl)-2,3,4,9-tetrahydro-1H-pyrido[3,4-b]indol-1-yl)phenoxy)ethyl)propan-1-amine] | – | – | –
227 µM (≈ 115 µg/mL) | Cc1c(OCCNCCCF)ccc(F)c1[C@@H]1c2[nH]c3ccccc3c2C[C@@H](C)N1CC(F)(F)CO [Example 45, 2,2-difluoro-3-((1R,3R)-1-(6-fluoro-3-(2-((3-fluoropropyl)amino)ethoxy)-2-methylphenyl)-3-methyl-1,3,4,9-tetrahydro-2H-pyrido[3,4-b]indol-2-yl)propan-1-ol] | – | – | –
– | COc1ccc(OCCNCCCF)cc1[C@@H]1c2[nH]c3ccccc3c2C[C@@H](C)N1CC1(F)CC1 [Example 52, 3-fluoro-N-(2-(3-((1R,3R)-2-((1-fluorocyclopropyl)methyl)-3-methyl-2,3,4,9-tetrahydro-1H-pyrido[3,4-b]indol-1-yl)-4-methoxyphenoxy)ethyl)propan-1-amine] | 0.58 nM | 0.34 nM | –
– | C[C@@H]1Cc2c([nH]c3ccc(F)cc23)[C@@H](c2c(F)ccc(OCCNCCCF)c2F)N1C[C@H](C)C(=O)O [Example 59, (S)-3-((1R,3R)-1-(2,6-difluoro-3-(2-((3-fluoropropyl)amino)ethoxy)phenyl)-6-fluoro-3-methyl-1,3,4,9-tetrahydro-2H-pyrido[3,4-b]indol-2-yl)-2-methylpropanoic acid] | 2.3 nM | 3.1 nM | –
7 µM (≈ 3.37 µg/mL) | C[C@@H]1Cc2c([nH]c3ccccc23)[C@@H](c2cc(F)cc(OCCNCCCF)c2)N1CC(F)(F)F [Example 73, 3-fluoro-N-(2-(3-fluoro-5-((1R,3R)-3-methyl-2-(2,2,2-trifluoroethyl)-2,3,4,9-tetrahydro-1H-pyrido[3,4-b]indol-1-yl)phenoxy)ethyl)propan-1-amine] | – | – | –
0.9 µM (≈ 0.433 µg/mL) | C[C@@H]1Cc2c([nH]c3ccccc23)[C@@H](c2ccc(F)c(OCCNCCCF)c2)N1CC(F)(F)F [Example 74, 3-fluoro-N-(2-(2-fluoro-5-((1R,3R)-3-methyl-2-(2,2,2-trifluoroethyl)-2,3,4,9-tetrahydro-1H-pyrido[3,4-b]indol-1-yl)phenoxy)ethyl)propan-1-amine] | – | – | –
– | Cc1c(OCCNCCCF)ccc(F)c1[C@@H]1c2[nH]c3ccccc3c2C[C@@H](C)N1CC(C)(C)C(=O)O [Example 119, 3-((1R,3R)-1-(6-fluoro-3-(2-((3-fluoropropyl)amino)ethoxy)-2-methylphenyl)-3-methyl-1,3,4,9-tetrahydro-2H-pyrido[3,4-b]indol-2-yl)-2,2-dimethyl-propanoic acid] | 6.9 nM | 1 nM | –
– | Cc1c(OCCNCCCF)ccc(F)c1[C@@H]1c2[nH]c3ccccc3c2C[C@@H](C)N1CC1(C(=O)O)CCC1 [Example 120] | 11 nM | 2.5 nM | –
– | CC[C@@H]1Cc2c([nH]c3ccccc23)[C@@H](c2c(F)ccc(OCCNCCCF)c2C)N1C[C@H](C)C(=O)O [Example 122, (S)-3-((1R,3R)-3-ethyl-1-(6-fluoro-3-(2-((3-fluoropropyl)amino)ethoxy)-2-methylphenyl)-1,3,4,9-tetrahydro-2H-pyrido[3,4-b]indol-2-yl)-2-methylpropanoic acid] | 4.9 nM | 0.39 nM | –
– | C[C@@H]1Cc2c([nH]c3ccccc23)[C@@H](c2c(F)ccc(OCCNCCCF)c2C(F)F)N1C[C@H](C)C(=O)O [Example 125, (S)-3-((1R,3R)-1-(2-(difluoromethyl)-6-fluoro-3-(2-((3-fluoropropyl)amino)ethoxy)phenyl)-3-methyl-1,3,4,9-tetrahydro-2H-pyrido[3,4-b]indol-2-yl)-2-methylpropanoic acid] | 1.3 nM | 0.62 nM | –
– | C[C@@H]1Cc2c([nH]c3ccccc23)[C@@H](c2c(F)cnc(OCCNCCCF)c2Cl)N1C[C@H](C)C(=O)O [Example 133, (S)-3-((1R,3R)-1-(3-chloro-5-fluoro-2-(2-((3-fluoropropyl)amino)ethoxy)pyridin-4-yl)-3-methyl-1,3,4,9-tetrahydro-2H-pyrido[3,4-b]indol-2-yl)-2-methylpropanoic acid] | 1.5 nM | 1.5 nM | –
– | C[C@@H](CN1[C@H](c2c(F)ccc(OCCNCCCF)c2Cl)c2[nH]c3ccccc3c2C[C@H]1C(F)F)C(=O)O [Example 138, (S)-3-((1R,3S)-1-(2-chloro-6-fluoro-3-(2-((3-fluoropropyl)amino)ethoxy)phenyl)-3-(difluoromethyl)-1,3,4,9-tetrahydro-2H-pyrido[3,4-b]indol-2-yl)-2-methylpropanoic acid] | 1.6 nM | 1.6 nM | –
– | C[C@@H](CN1[C@H](c2c(F)cnc(OCCNCCCF)c2Cl)c2[nH]c3ccccc3c2C[C@H]1C(F)F)C(=O)O [Example 139, (S)-3-((1R,3S)-1-(3-chloro-5-fluoro-2-(2-((3-fluoropropyl)amino)ethoxy)pyridin-4-yl)-3-(difluoromethyl)-1,3,4,9-tetrahydro-2H-pyrido[3,4-b]indol-2-yl)-2-methylpropanoic acid] | 1.5 nM | 0.9 nM | –
– | C[C@@H]1Cc2c([nH]c3ccccc23)[C@@H](c2c(F)ccc(OCCN(C)CCCF)c2F)N1C[C@H](C)C(=O)O [Example 144, (S)-3-((1R,3R)-1-(2,6-difluoro-3-(2-((3-fluoropropyl)(methyl)amino)ethoxy)phenyl)-3-methyl-1,3,4,9-tetrahydro-2H-pyrido[3,4-b]indol-2-yl)-2-methylpropanoic acid] | 5.6 nM | 7.9 nM | 88%
– | Cc1c(OCCN(C)CCCF)ccc(F)c1[C@@H]1c2[nH]c3ccc(F)cc3c2C[C@@H](C)N1C[C@H](C)C(=O)O [Example 146, (S)-3-((1R,3R)-6-fluoro-1-(6-fluoro-3-(2-((3-fluoropropyl)(methyl)amino)ethoxy)-2-methylphenyl)-3-methyl-1,3,4,9-tetrahydro-2H-pyrido[3,4-b]indol-2-yl)-2-methylpropanoic acid] | 1.1 nM | 0.4 nM | –
– | Cc1c(OCCN(C)CCCF)ncc(F)c1[C@@H]1c2[nH]c3ccc(F)cc3c2C[C@@H](C)N1C[C@@H](C)C(=O)O [Example 155, (2R)-3-[(1R,3R)-6-fluoro-1-[5-fluoro-2-[2-[3-fluoropropyl(methyl)amino]ethoxy]-3-methyl-4-pyridyl]-3-methyl-1,3,4,9-tetrahydropyrido[3,4-b]indol-2-yl]-2-methyl-propanoic acid] | 1 nM | 0.21 nM | –
– | Cc1c(OCCN(C)CCCF)ncc(F)c1[C@@H]1c2[nH]c3ccc(F)cc3c2C[C@@H](C)N1CCC(=O)O [Example 156, 3-((1R,3R)-6-fluoro-1-(5-fluoro-2-(2-((3-fluoropropyl)(methyl)amino)ethoxy)-3-methylpyridin-4-yl)-3-methyl-1,3,4,9-tetrahydro-2H-pyrido[3,4-b]indol-2-yl)propanoic acid] | 1.2 nM | 1.4 nM | –
– | Cc1c(OCCN(C)CCCF)ncc(F)c1[C@@H]1c2[nH]c3ccccc3c2C[C@@H](C)N1CCC(=O)O [Example 157, 3-((1R,3R)-1-(5-fluoro-2-(2-((3-fluoropropyl)(methyl)amino)ethoxy)-3-methylpyridin-4-yl)-3-methyl-1,3,4,9-tetrahydro-2H-pyrido[3,4-b]indol-2-yl)propanoic acid] | 1.8 nM | 1 nM | –
– | Cc1c(OCCN(C)CCCF)ccc(F)c1[C@@H]1c2[nH]c3ccc(F)cc3c2C[C@@H](C)N1C[C@@H](C)C(=O)O [Example 160, (R)-3-((1R,3R)-6-fluoro-1-(6-fluoro-3-(2-((3-fluoropropyl)(methyl)amino)ethoxy)-2-methylphenyl)-3-methyl-1,3,4,9-tetrahydro-2H-pyrido[3,4-b]indol-2-yl)-2-methylpropanoic acid] | 1.9 nM | 0.36 nM | –
